Patent publication US20030220386A1, “Delta 1-pyrrolines for use as pesticides” (priority 2000, published 2003)

Legend:
[1] = tested on: greenhouse red spider mite (Tetranychus urticae); test: Tetranychus test (OP-resistant/dip treatment); type: in vivo; settings: 100 ppm, bean plants dipped
Procedure: (§1) After the desired period of time, the activity in % is determined.

[2] = tested on: larvae of the armyworm (Spodoptera frugiperda); test: Spodoptera frugiperda test; type: in vivo; settings: 500 ppm, cabbage leaves dipped
[3] = tested on: larvae of the armyworm (Spodoptera exigua); test: Spodoptera exigua test; type: in vivo; settings: 500 ppm, cabbage leaves dipped
[4] = tested on: fruit tree spider mite (Panonychus ulmi); test: Panonychus test; type: in vivo; settings: 200 ppm, plum trees sprayed
Procedure: as §1

[5] = logP determination by HPLC (reversed-phase C 18), EEC Directive 79/831 Annex V.A8; type: physicochemical; settings: reversed-phase C18 HPLC column, pH 2.3, 0.1% aqueous phosphoric acid/acetonitrile, 43° C., read-out: log P (pH 2.3)
Procedure: The logP values given in the tables and preparation examples above are determined in accordance with EEC Directive 79/831 Annex V.A8 by HPLC (High Performance Liquid Chromatography) using a reversed-phase column (C 18). Temperature: 43° C.
In the acidic range, the determination is carried out at pH 2.3 using the mobile phases 0.1% aqueous phosphoric acid and acetonitrile; linear gradient from 10% acetonitrile to 90% acetonitrile.
In the neutral range, the determination is carried out at pH 7.5 using the mobile phases 0.01 molar aqueous phosphate buffer solution and acetonitrile; linear gradient from 10% acetonitrile to 90% acetonitrile.
Calibration is carried out using unbranched alkan-2-ones (of 3 to 16 carbon atoms) with known logP values (determination of the logP values by the retention times using linear interpolation between two successive alkanones).

[6] = tested on: peach aphid (Myzus persicae); test: Myzus test; type: in vivo; settings: 500 ppm, cabbage leaves dipped
[7] = tested on: larvae of the mustard beetle (Phaedon cochleariae); test: Phaedon larvae test; settings: 1000 ppm, cabbage leaves dipped
[8] = tested on: Lucilia cuprina larvae; test: Blowfly larvae test/Development-inhibitory action; type: in vivo; settings: 100 ppm; mortality of the larvae after 48 hours
Procedure: (§2) 20 mg of active compound are dissolved in one ml of dimethyl sulphoxide. To prepare a suitable formulation, the solution of active compound is diluted with water to the concentration desired in each case.
About 20 Lucilia cuprina larvae are introduced into a test tube which contains about 1 cm^3 of horsemeat and 0.5 ml of the preparation of active compound to be tested. The activity of the preparation of active compound is determined after 48 hours as the mortality of the larvae in %.
The test tubes are then transferred into a beaker whose bottom is covered with sand. After a further 12 days, the test tubes are removed and the pupae and flies are counted. The development-inhibitory action is stated as inhibition of hatching in % (ratio of pupae to flies that have hatched) after 1.5 times the development period of an untreated control.

[9] = tested on: caterpillars of the diamondback moth (Plutella xylostella); test: Plutella test; type: in vivo; settings: 500 ppm, cabbage leaves dipped
[10] = tested on: cotton aphid (Aphis gossypii); test: Aphis gossypii test; type: in vivo; settings: 100 ppm, cotton leaves dipped
[11] = tested on: Amblyomma hebraeum nymphs; test: Test with polyphagous tick nymphs, dip treatment; type: in vivo; settings: nymphs immersed for 1 minute; after 4 weeks
Procedure: as §2
10 nymphs which have sucked themselves full are immersed for 1 minute into the preparation of active compound to be tested. The animals are transferred to Petri dishes (Ø 9.5 cm) fitted with filter discs and covered. After 4 weeks of storage in a climatized room, the mortality is determined.
100% means that none of the animals has undergone normal ecdysis. 0% means that all animals have undergone ecdysis.

SMILES: O=S(=O)(Oc1ccc([C@H]2CCC(c3c(F)cccc3F)=N2)cc1)C(F)(F)F [I-2, (2R)-4-[5-(2,6-Difluorophenyl)-3,4-dihydro-2H-pyrrol-2-yl]phenyl trifluoromethanesulphonate]
- Kill rate in % after 7 days [1]: 98%
- Kill rate in % after 6 days [2]: 95%
- Kill rate in % after 6 days [3]: 100%
- Kill rate in % after 7 days [4]: 98%
- chromatographic logP [5]: 3.55
- Kill rate in % after 6 days [6]: 98%
- Kill rate in % after 7 days [7]: 100%
- Action in % after 48 hours [8]: 100%
- Kill rate in % after 6 days [9]: 100%
- Kill rate in % after 6 days [10]: 90%
- activity (mortality / no normal ecdysis) [11]: good activity
